This passage reports Dmax, DC50 and concentration results from patent publication US20250002489A1, “BIFUNCTIONAL COMPOUNDS FOR DEGRADING ITK VIA UBIQUITIN PROTEOSOME PATHWAY” (NURIX THERAPEUTICS, INC., priority 2021, published 2025).

In general, Dmax refers to the greatest extent of degradation seen. A low value points to a partial loss of target. As a reminder, the DC50 is the midpoint of the concentration-degradation curve. The low end stands for degradation at low concentration, the high end for degradation only at high concentration.

Data set [1] has as its target T1, ITK (Jurkat or Molt4 cells) (Homo sapiens, UniProt Q08881).
T1 construct: either human Jurkat (Clone E6-1 ATCC TIB-152) or Motl4 (ATCC CRL-1552), were plated; endogenous in cells; host or cells: Jurkat Clone E6-1 (ATCC TIB-152) or Molt4 (ATCC CRL-1552)
T1 sequence (Q08881 1-620): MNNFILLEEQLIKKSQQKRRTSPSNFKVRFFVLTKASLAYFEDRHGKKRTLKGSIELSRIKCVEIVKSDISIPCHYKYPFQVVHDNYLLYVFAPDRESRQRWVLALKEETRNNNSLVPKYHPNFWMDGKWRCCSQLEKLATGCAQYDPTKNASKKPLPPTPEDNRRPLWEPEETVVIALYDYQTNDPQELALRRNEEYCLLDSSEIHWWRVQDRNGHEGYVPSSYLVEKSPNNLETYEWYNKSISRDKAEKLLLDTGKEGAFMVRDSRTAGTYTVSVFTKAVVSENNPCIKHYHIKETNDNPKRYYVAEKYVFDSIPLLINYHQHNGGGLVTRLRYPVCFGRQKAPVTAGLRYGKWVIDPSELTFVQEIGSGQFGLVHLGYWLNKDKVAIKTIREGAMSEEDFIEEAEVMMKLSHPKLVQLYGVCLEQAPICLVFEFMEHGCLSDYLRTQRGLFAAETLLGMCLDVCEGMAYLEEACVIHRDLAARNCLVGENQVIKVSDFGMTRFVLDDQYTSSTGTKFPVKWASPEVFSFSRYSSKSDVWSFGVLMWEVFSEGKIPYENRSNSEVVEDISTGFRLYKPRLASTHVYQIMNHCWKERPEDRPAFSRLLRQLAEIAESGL
The data set can be described thus: ITK Degradation MSD (Meso Scale Discovery) Assay. It counts as cell-based. Particulars: 4 or 6 hrs incubation; for DC50: best fit IC50 used as DC50. The method, boiled down: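 Jurkat or Molt4 cells at 1×10^6 cells/mL in RPMI/10% FBS treated 4 or 6 hr at 32° C with 7-point, 5-fold compound dilutions (0.5% DMSO). Lysate ITK quantified by MSD sandwich ECL immunoassay; % ITK remaining fitted by four-parameter curve, IC50 taken as DC50, plus Dmax.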

Data set [2] in a line: Mouse PK analysis, plasma concentration by LC/MS/MS after oral administration. It counts as in vivo. Particulars: mice; for concentration at 2 h: timepoint 2 h; for concentration at 6 h: timepoint 6 h. The method, then: Mouse PK Analysis Compounds 17 and 18 were administered to mice orally. After six hours or twenty-four hours, splenocyte cells were harvested. ITK was evaluated by Western blotting. Plasma concentrations were determined by LC/MS/MS. Plasma samples were protein precipitated by addition of 100 μl of acetonitrile containing 50 ng/ml of internal standard. The resulting mixture was vortexed and centrifuged at 4000 rpm for five minutes. An aliquot of the resultant supernatant (75 μl) was added to 75 μl of 0.1% formic acid in water to constitute the final sample for injection. Samples were injected on a Shimadzu Exion LC Binary Gradient AD Pump HLPC system connected to a Sciex QTRAP 6500+ mass spectrometer. 5 μL of sample was injected onto a Waters Acquity UPLC BEH C18 column 130A (2.1×30 mm, […]) at 40° C. utilizing a flow rate of 700 μL/minute.
Mobile Phase A was 0.1% formic acid in water and mobile phase B was 0.1% formic acid in acetonitrile. A linear gradient of 15-95% B over 1.0 minute was used. The mass spectrometer was operated in positive ion electrospray mode with multiple reaction monitoring for maximum sensitivity. Sciex Analyst software (version 1.6.3) was used for LC/MS/MS instrument control and acquisition. Compound concentration was determined against a standard curve of internal standard versus compound peak area ratio. Noncompartmental PK parameters were determined using Phoenix 32 software (version 8.2.0.4383) from Certara. Plasma concentrations from the LC/MS/MS analyses, dose, route of administration, and desired units were utilized for PK parameter calculations.

As to `Cc1ncsc1-c1ccc(CNC(=O)[C@@H]2C[C@@H](O)CN2C(=O)[C@@H](NC(=O)C2(F)CC2)C(C)(C)C)c(OCCCCCC(=O)N2CC([C@@H](c3ccccc3)n3cc(NC(=O)c4n[nH]c5c4C[C@@H]4C(F)(F)[C@]4(C)C5)cn3)C2)c1` [Compound 18, (4aS,5aR)-5,5-difluoro-N-(1-((S)-(1-(6-(2-(((2S,4R)-1-((S)-2-(1-fluorocyclopropane-1-carboxamido)-3,3-dimethylbutanoyl)-4-hydroxypyrrolidine-2-carboxamido)methyl)-5-(4-methylthiazol-5-yl)phenoxy)hexanoyl)azetidin-3-yl)(phenyl)methyl)-1H-pyrazol-4-yl)-5a-methyl-1,4,4a,5,5a,6-hexahydrocyclopropa[f]indazole-3-carboxamide], in data set [1], the greatest degradation seen (Dmax) came to 95.1% and it took 1.47 nM to reach half-maximal degradation (DC50). In data set [2], this compound had a concentration at 2 h of 6.1 nM and a concentration at 6 h of 16.2 nM.
For `Cc1ncsc1-c1ccc(CNC(=O)[C@@H]2C[C@@H](O)CN2C(=O)[C@@H](NC(=O)C2(F)CC2)C(C)(C)C)c(OCCOCCC(=O)N2CC([C@@H](c3ccccc3)n3cc(NC(=O)c4n[nH]c5c4C[C@@H]4C(F)(F)[C@]4(C)C5)cn3)C2)c1` [Compound 17, (4aS,5aR)-5,5-difluoro-N-(1-((S)-(1-(3-(2-(2-(((2S,4R)-1-((S)-2-(1-fluorocyclopropane-1-carboxamido)-3,3-dimethylbutanoyl)-4-hydroxypyrrolidine-2-carboxamido)methyl)-5-(4-methylthiazol-5-yl)phenoxy)ethoxy)propanoyl)azetidin-3-yl)(phenyl)methyl)-1H-pyrazol-4-yl)-5a-methyl-1,4,4a,5,5a,6-hexahydrocyclopropa[f]indazole-3-carboxamide], in that order: 95.7%, 4.51 nM, 1.8 nM and 4.5 nM.
